Assay results published in ChEMBL document CHEMBL1127270, “Enantioselective synthesis of PD144723: a potent stereospecific anticonvulsant” (Bioorg Med Chem Lett, 1994).

Tests used:
[1] = In vitro inhibition of [3H]-gabapentin binding to partially purified rat neocortex synaptic plasma membranes; type: cell membranes, Membrane
[2] = species on record: Rattus norvegicus; experiment: In vitro percent inhibition of [3H]gabapentin binding at log molar concentration of -5.5
[3] = species on record: Rattus norvegicus; experiment: In vitro percent inhibition of [3H]gabapentin binding at log molar concentration of -4.5
[4] = species on record: Rattus norvegicus; experiment: In vitro percent inhibition of [3H]gabapentin binding at log molar concentration of -6.5
[5] = species on record: Rattus norvegicus; experiment: In vitro percent inhibition of [3H]gabapentin binding at log molar concentration of -4
[6] = species on record: Rattus norvegicus; experiment: In vitro percent inhibition of [3H]gabapentin binding at log molar concentration of -7.5
[7] = species on record: Rattus norvegicus; experiment: In vitro percent inhibition of [3H]gabapentin binding at log molar concentration of -7
[8] = species on record: Rattus norvegicus; experiment: In vitro percent inhibition of [3H]gabapentin binding at log molar concentration of -6
[9] = species on record: Rattus norvegicus; experiment: In vitro percent inhibition of [3H]gabapentin binding at log molar concentration of -8
[10] = species on record: Rattus norvegicus; experiment: In vitro percent inhibition of [3H]gabapentin binding at log molar concentration of -5
[11] = species on record: Rattus norvegicus; experiment: In vitro percent inhibition of [3H]gabapentin binding at log molar concentration of -8.5
[12] = species on record: Mus musculus; experiment: Effective dose for anticonvulsant activity (blocking maximal electroshock seizures) in male CF-1 strain mice was measured.; type: functional
[13] = system: Mus musculus; experiment: Percent of mice protected in blocking maximal electroshock seizures test at a dose of 500 mg/kg, iv,; type: functional
[14] = system: Mus musculus; experiment: Percent of mice protected in blocking maximal electroshock seizures test at a dose of 100 mg/kg, iv,; type: functional
[15] = system: Mus musculus; experiment: Percent of mice protected in blocking maximal electroshock seizures test at a dose of 75 mg/kg, iv,; type: functional
[16] = system: Mus musculus; experiment: Percent of mice protected in blocking maximal electroshock seizures test at a dose of 750 mg/kg, iv,; type: functional
[17] = system: Mus musculus; experiment: Percent of mice protected in blocking maximal electroshock seizures test at a dose of 150 mg/kg, iv,; type: functional
[18] = system: Mus musculus; experiment: Percent of mice protected in blocking maximal electroshock seizures test at a dose of 50 mg/kg, iv,; type: functional
[19] = system: Mus musculus; experiment: Percent of mice protected in blocking maximal electroshock seizures test at a dose of 450 mg/kg, iv,; type: functional

SMILES	IC50 [1]	inhibition [2]	inhibition [3]	inhibition [4]	inhibition [5]	inhibition [6]	inhibition [7]	inhibition [8]	inhibition [9]	inhibition [10]	inhibition [11]	ED50 [12]	Protection [13]	Protection [14]	Protected [15]	Protected [16]	Protected [17]	Protected [18]	Protected [19]
CC(C)CC(CN)CC(=O)O (racemic)	83 nM	92%	98%	74%	100%	30%	50%	90%	12%	94%	10%								
CC(C)C[C@@H](CN)CC(=O)O	620 nM	80%	90%	38%		10%	8%	60%	0%	80%		> 300 mg/kg	~1%	~94%					
CC(C)C[C@H](CN)CC(=O)O [PREGABALIN]	37 nM	94%	100%	85%		50%	75%	90%	25%	98%		20 mg/kg							
NCC1(CC(=O)O)CCCCC1 [GABAPENTIN]	80 nM											87 mg/kg			~70%	~99%	~75%	~1%	~74%
